{"source": "patent US20100035755A1", "about": "“METHOD OF CONTROLLING WEEDS IN A TURF GRASS BY USING SULFONYLUREA COMPOUNDS” (Moghu Research Center Ltd., priority 2008, published 2010)", "key": {"[1]": {"system": "cool season turf grass", "details": "background statement; creeping bentgrass, Kentucky bluegrass; cited from earlier work"}, "[2]": {"system": "every kind of turf grasses tested", "experiment": "Turf grass selectivity, text summary over all turf grasses", "type": "in vivo", "text": "Turf mats of Zoysia grass, bentgrass, Kentucky bluegrass, or perennial rye grass known as cool season turfgrass or western grass were purchased and cut into a piece having 10 cm×20 cm size. Then, each piece was transplanted in a rectangular plastic pot (surface area of 300 cm^2) in which sandy loam and mixed top soil (Boo-Nong Top Soil No. 3, for horticultural use) are filled in 1:1 ratio. After the transplantation, the grasses were cut once a week to maintain the blade height at 0.5-1.0 cm and cultivated for one month in a green house of which temperature was kept at 25˜30° C. for daytime and 15˜25° C. for nighttime, respectively. Then, the ‘test chemical’ of the above Examples 1 and 2 or ‘control chemical’ was applied thereto in an amount of 400, 200, 100, 50, 25, 12, 6, 3 g ai/ha. As a “control chemical”, pyrazolsulfuron ethyl wettable agent (manufactured by Dongbu Fine Chemicals; herein after, referred to as ‘control chemical No. 1’) and flazasulfuron (manufactured by Dongbu HiTek; herein after, referred to as ‘control chemical No. 2’), both sulfonylurea herbicides for a turf grass, were used. Application was carried out by using a track sprayer (R&D Sprayer, USA) equipped with Teejet 8002 nozzle (Spraying Systems Co., USA), and the application amount was adjusted to 2,000 L/ha, which is a typical application amount for a golf course in Korea. Application solution was prepared by diluting the “test chemical” or the “control chemical” with tap water. […] The test was repeated three times in a random arrangement and the results are given in average value of each test (see Table 2 below)."}, "[3]": {"system": "Kyllinga brevifolia", "experiment": "Actual field condition test of Example 1 (golf course)", "type": "in vivo", "details": "for efficacy in actual field condition: Kyllinga brevifolia (growth period), twenty days after application", "procedure": "The test chemical of the Example 1 was applied to a turf grass field, in which Digitaria sanguinalis as a representative summer-time poaceae weed and Kyllinga brevifolia as a representative hard-to-control perennial cyperaceae weed are thriving predominantly, to evaluate weed control effect of the compound. The experiment was carried out from May to July, 2008 in the Dae-duk Research Park golf course (Doryong-dong, Yusong-gu, Daejon, South Korea). At the time of the chemical application, Digitaria sanguinalis was at about 4-leaf stage and Kyllinga brevifolia was at growth period."}}, "data": [{"compound": "COc1cc(OC)nc(NC(=O)NS(=O)(=O)c2ncccc2C(F)(F)F)n1", "note": "[Control chemical No. 2, Flazasulfuron, reference compound]", "values": [{"measurement": "safety to cool season turf grass", "setting": "[1]", "value": "no safety"}]}, {"compound": "Cc1cc(C)nc(NC(=O)NS(=O)(=O)c2ccccc2C(O)C(C)F)n1", "note": "(stereo not drawn) [Example 1]", "values": [{"measurement": "phytotoxicity to a turf grass", "setting": "[2]; 100 g ai/ha", "value": "no phytotoxicity at all"}, {"measurement": "phytotoxicity to a turf grass", "setting": "[2]; 400 g ai/ha", "value": "only minor phytotoxicity"}, {"measurement": "phytotoxicity to turf grasses", "setting": "[2]; 400 or 200 g ai/ha", "value": "only minor phytotoxicity"}, {"measurement": "safety to turf grasses", "setting": "[2]; every kind of turf grasses tested, 100 g ai/ha or less", "value": "excellent safety"}, {"measurement": "efficacy in actual field condition", "setting": "[3]; 50 g ai/ha", "value": 100}, {"measurement": "efficacy in actual field condition", "setting": "[3]; 100 g ai/ha", "value": 100}, {"measurement": "efficacy in actual field condition", "setting": "[3]; 200 g ai/ha", "value": 100}, {"measurement": "weed controlled in actual field", "setting": "[3]; Kyllinga brevifolia, 50 g ai/ha or more", "value": 100, "unit": "%"}]}]}
